According to US4387106A, “Method of treating atherosclerosis with di(aralkyl)ureas and di(aralkyl)thioureas” (American Cyanamid Company, priority 1982, dated 1983):

Tested on: Cholesterol absorption
Test: not given
Conditions: po, 0.03 % of diet, 336 h

Structure (SMILES) | Result (inhibition of cholesterol absorption: lowering of serum or liver cholesterol relative to control)
Cc1cc(C)c(NC(=O)N(Cc2ccccc2)Cc2ccccc2)cc1C [1,1-Dibenzyl-3-(2,4,5-trimethylphenyl)urea] | Active
O=C(Nc1ccc(Cl)cc1Cl)N(Cc1ccccc1)Cc1ccccc1 [1,1-Dibenzyl-3-(2,4-dichlorophenyl)urea] | Active
Cc1ccc(NC(=S)N(Cc2ccccc2)Cc2ccccc2)c(C)c1 [1,1-Dibenzyl-3-(2,4-dimethylphenyl)thiourea] | Active

Biological target: T1, fatty acyl CoA:cholesterol acyl transferase (ACAT) (Rattus norvegicus, UniProt O70536)
T1 construct: The supernatant, containing the microsomal fraction, served as the source of the cholesterol-esterifying enzyme; from tissue; host or cells: rat adrenals, homogenate, 1000 x g supernatant containing the microsomal fraction
T1 sequence (O70536 1-545): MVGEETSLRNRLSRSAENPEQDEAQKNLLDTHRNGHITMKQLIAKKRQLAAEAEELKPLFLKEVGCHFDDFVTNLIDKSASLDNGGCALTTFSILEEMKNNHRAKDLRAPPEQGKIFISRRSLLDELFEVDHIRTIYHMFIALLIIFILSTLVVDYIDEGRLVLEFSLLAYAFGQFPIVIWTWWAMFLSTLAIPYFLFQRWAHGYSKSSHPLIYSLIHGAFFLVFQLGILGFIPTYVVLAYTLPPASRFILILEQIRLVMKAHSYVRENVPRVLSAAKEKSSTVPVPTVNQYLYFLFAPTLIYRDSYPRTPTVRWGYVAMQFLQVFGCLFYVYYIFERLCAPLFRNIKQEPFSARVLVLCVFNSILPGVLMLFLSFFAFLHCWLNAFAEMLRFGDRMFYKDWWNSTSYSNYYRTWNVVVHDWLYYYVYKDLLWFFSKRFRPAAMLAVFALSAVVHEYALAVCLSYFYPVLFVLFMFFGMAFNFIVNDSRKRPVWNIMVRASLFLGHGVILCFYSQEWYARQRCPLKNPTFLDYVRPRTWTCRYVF
Test: In vitro inhibition of fatty acyl CoA:cholesterol acyl transferase (ACAT), rat adrenal supernatant
Type: biochemical
Conditions: final concentration 5.2 μg./ml., pH 7.4, 37° C., oleoyl CoA (14C)
Procedure: The compounds were tested for their ability to inhibit ACAT according to the following procedure:
Rat adrenals were homogenized in 0.2 M monobasic potassium phosphate buffer, pH 7.4, and centrifuged at 1000 times gravity for 15 minutes at 5° C. The supernatant, containing the microsomal fraction, served as the source of the cholesterol-esterifying enzyme, fatty acyl CoA:cholesterol acyl transferase (ACAT). A mixture comprising 50 parts of adrenal supernatant, 10 parts of albumin (BSA) (50 mg./ml.), 3 parts of test compound (final concentration 5.2 μg./ml.) and 500 parts of buffer was preincubated at 37° C. for 10 minutes. After treatment with 20 parts of oleoyl CoA (^14 C--0.4 μCi) the mixture was incubated at 37° C. for 10 minutes. A control mixture, omitting the test compound, was prepared and treated in the same manner. The lipids from the incubation mixture were extracted into an organic solvent and separated by thin-layer chromatography. The cholesteryl ester fraction was counted in a scintillation counter.

Structure (SMILES) | inhibition at 5.2 µg/mL
O=C(Nc1cccc2ccccc12)N(Cc1ccccc1)Cc1ccccc1 [1,1-Dibenzyl-3-(2,3-dibenzophenyl)urea] | 90%
O=C(Nc1cccc(Cl)c1Cl)N(Cc1ccccc1)Cc1ccccc1 [1,1-Dibenzyl-3-(2,3-dichlorophenyl)urea] | 79.7%
Cc1cc(C)c(NC(=O)N(Cc2ccccc2)Cc2ccccc2)cc1C [1,1-Dibenzyl-3-(2,4,5-trimethylphenyl)urea] | 69.1%
O=C(Nc1ccc(Br)cc1Br)N(Cc1ccccc1)Cc1ccccc1 [1,1-Dibenzyl-3-(2,4-dibromophenyl)urea] | 81.9%
O=C(Nc1ccc(Cl)cc1Cl)N(Cc1ccccc1)Cc1ccccc1 [1,1-Dibenzyl-3-(2,4-dichlorophenyl)urea] | 83.3%
Cc1ccc(NC(=S)N(Cc2ccccc2)Cc2ccccc2)c(C)c1 [1,1-Dibenzyl-3-(2,4-dimethylphenyl)thiourea] | 78.7%
O=C(Nc1cc(Cl)ccc1Cl)N(Cc1ccccc1)Cc1ccccc1 [1,1-Dibenzyl-3-(2,5-dichlorophenyl)urea] | 82.4%
O=C(Nc1cc(F)ccc1F)N(Cc1ccccc1)Cc1ccccc1 [1,1-Dibenzyl-3-(2,5-difluorophenyl)urea] | 72%
Cc1ccc(C)c(NC(=O)N(Cc2ccccc2)Cc2ccccc2)c1 [1,1-Dibenzyl-3-(2,5-dimethylphenyl)urea] | 89.1%
O=C(Nc1c(Cl)cccc1Cl)N(Cc1ccccc1)Cc1ccccc1 [1,1-Dibenzyl-3-(2,6-dichlorophenyl)urea] | 88.6%
CCc1cccc(CC)c1NC(=O)N(Cc1ccccc1)Cc1ccccc1 [1,1-Dibenzyl-3-(2,6-diethylphenyl)urea] | 72%
Cc1cccc(C)c1NC(=O)N(Cc1ccccc1)Cc1ccccc1 [1,1-Dibenzyl-3-(2,6-dimethylphenyl)urea] | 56.1%
CC(C)c1cccc(C(C)C)c1NC(=O)N(Cc1ccccc1)Cc1ccccc1 [1,1-Dibenzyl-3-(2,6-isopropylphenyl)urea, 1,1-Dibenzyl-3-(2,6-diisopropylphenyl)urea] | 59.1%
O=C(Nc1ccccc1Br)N(Cc1ccccc1)Cc1ccccc1 [1,1-Dibenzyl-3-(2-bromophenyl)urea] | 93.9%
O=C(Nc1ccccc1Cl)N(Cc1ccccc1)Cc1ccccc1 [1,1-Dibenzyl-3-(2-chlorophenyl)urea] | 87.8%
O=C(Nc1cc(Cl)cc(Cl)c1)N(Cc1ccccc1)Cc1ccccc1 [1,1-Dibenzyl-3-(3,5-dichlorophenyl)urea] | 86.1%
Cc1cc(C)cc(NC(=O)N(Cc2ccccc2)Cc2ccccc2)c1 [1,1-Dibenzyl-3-(3,5-dimethylphenyl)urea] | 90.2%
CC(=O)c1cccc(NC(=O)N(Cc2ccccc2)Cc2ccccc2)c1 [1,1-Dibenzyl-3-(3-acetylphenyl)urea] | 80.7%
Cc1c(Cl)cccc1NC(=O)N(Cc1ccccc1)Cc1ccccc1 [1,1-Dibenzyl-3-(3-chloro-2-methylphenyl)urea] | 83.8%
O=C(Nc1cccc([N+](=O)[O-])c1)N(Cc1ccccc1)Cc1ccccc1 [1,1-Dibenzyl-3-(3-nitrophenyl)urea] | 81.3%
FC(F)(F)c1cccc(NC(=S)N(Cc2ccccc2)Cc2ccccc2)c1 [1,1-Dibenzyl-3-(3-trifluoromethylphenyl)thiourea] | 88.6%
O=C(Nc1cccc(C(F)(F)F)c1)N(Cc1ccccc1)Cc1ccccc1 [1,1-Dibenzyl-3-(3-trifluoromethylphenyl)urea] | 94.2%
CCOC(=O)c1ccc(NC(=S)N(Cc2ccccc2)Cc2ccccc2)cc1 [1,1-Dibenzyl-3-(4-carboethoxyphenyl)thiourea] | 76.6%
O=C(Nc1ccc(Cl)c(C(F)(F)F)c1)N(Cc1ccccc1)Cc1ccccc1 [1,1-Dibenzyl-3-(4-chloro-3-trifluoromethylphenyl)urea] | 92%
Cc1ccc(NC(=O)N(Cc2ccccc2)Cc2ccccc2)cc1 [1,1-Dibenzyl-3-(4-methylphenyl)urea] | 89.8%
CCCCOc1ccc(NC(=O)N(Cc2ccccc2)Cc2ccccc2)cc1 [1,1-Dibenzyl-3-(4-n-butoxyphenyl)urea] | 90.2%
Cc1cccc(Cl)c1NC(=O)N(Cc1ccccc1)Cc1ccccc1 [1,1-Dibenzyl-3-(6-chloro-2-methylphenyl)urea] | 83.9%
CCc1cccc(C)c1NC(=O)N(Cc1ccccc1)Cc1ccccc1 [1,1-Dibenzyl-3-(6-ethyl-2-methylphenyl)urea] | 73.6%

More lines, now with the values ahead:

inhibition at 5.2 µg/mL | Structure (SMILES)
87.9% | COc1ccc(OC)c(NC(=O)N(Cc2ccccc2)Cc2ccccc2)c1 [1,1-Dibenzyl-3-(2,5-dimethoxyphenyl)urea]
91% | COc1ccccc1NC(=O)N(Cc1ccccc1)Cc1ccccc1 [1,1-Dibenzyl-3-(2-methoxyphenyl)urea]
77% | Cc1ccccc1NC(=O)N(Cc1ccccc1)Cc1ccccc1 [1,1-Dibenzyl-3-(2-methylphenyl)urea]
94.5% | O=C(Nc1ccc(Cl)c(Cl)c1)N(Cc1ccccc1)Cc1ccccc1 [1,1-Dibenzyl-3-(3,4-dichlorophenyl)urea]
94.2% | O=C(Nc1cccc(Cl)c1)N(Cc1ccccc1)Cc1ccccc1 [1,1-Dibenzyl-3-(3-chlorophenyl)urea]
87% | COc1cccc(NC(=O)N(Cc2ccccc2)Cc2ccccc2)c1 [1,1-Dibenzyl-3-(3-methoxyphenyl)urea]
88.9% | Cc1cccc(NC(=O)N(Cc2ccccc2)Cc2ccccc2)c1 [1,1-Dibenzyl-3-(3-methylphenyl)urea]
79.9% | O=C(Nc1ccc(Br)cc1)N(Cc1ccccc1)Cc1ccccc1 [1,1-Dibenzyl-3-(4-bromophenyl)urea]
14.1% | O=C(O)c1ccc(NC(=O)N(Cc2ccccc2)Cc2ccccc2)cc1 [1,1-Dibenzyl-3-(4-carboxyphenyl)urea]
77.5% | O=C(Nc1ccc(Cl)cc1)N(Cc1ccccc1)Cc1ccccc1 [1,1-Dibenzyl-3-(4-chlorophenyl)urea]
95.8% | CCOc1ccc(NC(=O)N(Cc2ccccc2)Cc2ccccc2)cc1 [1,1-Dibenzyl-3-(4-ethoxyphenyl)urea]
85.2% | O=C(Nc1ccc(I)cc1)N(Cc1ccccc1)Cc1ccccc1 [1,1-Dibenzyl-3-(4-iodophenyl)urea]
71.6% | COc1ccc(NC(=O)N(Cc2ccccc2)Cc2ccccc2)cc1 [1,1-Dibenzyl-3-(4-methoxyphenyl)urea]
67.1% | CSc1ccc(NC(=O)N(Cc2ccccc2)Cc2ccccc2)cc1 [1,1-Dibenzyl-3-(4-methylthiophenyl)urea]
52.2% | O=C(Nc1ccc([N+](=O)[O-])cc1)N(Cc1ccccc1)Cc1ccccc1 [1,1-Dibenzyl-3-(4-nitrophenyl)urea]
90.4% | O=C(Nc1ccccc1)N(Cc1ccccc1)Cc1ccccc1 [1,1-Dibenzyl-3-phenylurea, 1,1-Dibenzyl-3-phenyl urea]

Same assay, conditions: pH 7.4, final concentration 5.2 μg./ml., pH 7.4, 37° C., oleoyl CoA (14C)

Structure (SMILES) | inhibition at 5.2 µg/mL
O=C(Nc1ccc2ccccc2c1)N(Cc1ccccc1)Cc1ccccc1 [1,1-Dibenzyl-3-(3,4-dibenzophenyl)urea] | 97.3%
Cc1ccc(NC(=O)N(Cc2ccccc2)Cc2ccccc2)cc1 [1,1-Dibenzyl-3-(4-methylphenyl)urea] | 86.5%
